Experimental data from article PMC12040169 (PLOS Biology, 2025).

Assay: in vitro
Settings: human, hela cells, % viability

| Compound | viability at 28.5 h, 10 µM |
| --- | --- |
| CN1CCC(OCCCn2ccnc2-c2ccccc2C(=O)O)CC1 [CBK307188] | 87% |
| Cc1cc(OCC(=O)N(C)C)c2c3c(c(=O)oc2c1)CCCC3 [CBK307189] | 96.3% |
| Cc1nn(C)c2nc(NCc3ccc(C(=O)N4CCCC4)cc3)sc12 [CBK307190] | 88.6% |
| Cc1cc(C)c(CNC(=O)N(C)C(C)c2ccncn2)cn1 (stereo not drawn) [CBK307192] | 93.4% |
| COc1ccc2c(c1)cc(C(=O)NCc1cncn1CC(C)C)n2C [CBK307193] | 89.3% |
| COC(=O)c1ccc(NC(=O)N2CCCCC2CCn2ccnc2)cc1 (stereo not drawn) [CBK307195] | 86.8% |
| COc1ccc2c(c1)cc(C(=O)N(C)CCCn1nc(C)cc1C)n2C [CBK307196] | 81.4% |
| CC(NC(=O)N(C)Cc1ccc2ccccc2n1)c1nncn1C(C)C (stereo not drawn) [CBK307197] | 92.9% |
| CSc1nc(C(=O)NC2CCCN(c3ncccn3)C2)cs1 (stereo not drawn) [CBK307198] | 98.7% |
| CN(C)c1ccc(-c2nc(C(F)(F)F)nn2C)cn1 [CBK307202] | 87.1% |
| CN1CCN(c2cnn(CCCOc3ccccc3)c(=O)c2)CC1 [CBK307203] | 100% |
| COc1cccc(CN2CCCC(NC(=O)c3cn4ccsc4n3)C2)c1 (stereo not drawn) [CBK307204] | 81.1% |
| Cn1nc2n(c1=O)CC(C(=O)NCCN1CCCc3ccccc31)CC2 (stereo not drawn) [CBK307206] | 93.5% |
| CCCc1nnc2sc(C3CCC(=O)N(CC(C)C)C3)nn12 (stereo not drawn) [CBK307207] | 95.6% |
| COc1cccc2ncn(CCCc3nc(C)c(C)s3)c(=O)c12 [CBK307208] | 95.2% |
| CCCCSc1nc(N)cc(N2CCCN(C(=O)C3CCCO3)CC2)n1 (stereo not drawn) [CBK307209] | 86.8% |
| Cn1ccnc1C(NC(=O)N1CCOc2ccc(Cl)cc2C1)C1CC1 (stereo not drawn) [CBK307212] | 91% |
| CCCCC(c1cccnc1)N(C)C(=O)c1cc(CC)[nH]c(=O)c1 (stereo not drawn) [CBK307216] | 107% |
| CCn1c(CC2CCN(C(=O)CCN3CCCCO3)CC2)nn(C)c1=O [CBK307217] | 95.4% |
| CN(CCN1CCCCC1=O)c1nccc(CCC(F)(F)F)n1 [CBK307218] | 106% |
| CC(=O)COc1cc(OCC(C)=O)c2c3c(c(=O)oc2c1)CCC3 [CBK307219] | 85.1% |
| COc1ccc(CN2CCOCC2CC(=O)O)cc1Cn1cncn1 (stereo not drawn) [CBK307220] | 92.7% |

| Compound | viability at 28.5 h, 10 µM |
| --- | --- |
| CCc1noc(C)c1C(=O)N1CC[C@@H](CNC(=O)N2CCCC2)[C@H](O)C1 [CBK307222] | 88.3% |
| CCN1CC2(CCCN(Cc3cncn3C3CCCCC3)C2)CCC1=O (stereo not drawn) [CBK307223] | 98.1% |
| CCn1cc(CN(Cc2cccnc2)Cc2ccccc2OC)cn1 [CBK307224] | 84.2% |
| O=C(N[C@@H]1COCC[C@@H]1OCC1CC1)c1cccc2c1NCCC2 [CBK307227] | 102% |
| Cc1ccc2nc(CNC(=O)CN(C)C3CCNCC3)cn2c1 [CBK307228] | 96.6% |
| CCCNC(=O)NC1CC(C)(C)Cc2nc(N3CCOCC3)ncc21 (stereo not drawn) [CBK307232] | 85.7% |
| COc1ccccc1C(=O)Nc1sc2c(c1C#N)CC(C)(C)NC2(C)C [CBK307233] | 99.9% |
| Cc1ccc(F)cc1C(=O)NCC1CCN(c2cnn(C)c(=O)c2)C1 (stereo not drawn) [CBK307235] | 92.2% |
| COc1ccc(Cl)cc1CN(C)C(=O)c1cnn2cc(CCO)cnc12 [CBK307236] | 97.7% |
| O=C(c1nc2ccccn2c1CN1CCCC(O)C1)N1CCOCC1 (stereo not drawn) [CBK307237] | 88.4% |
| Cc1cc(=O)cc(C(=O)NC2CCN(c3ncccc3C#N)CC2)o1 [CBK307240] | 86.2% |
| CCOc1ccc(-c2ccnc(N3CCC(N(C)C)C3)n2)cc1C(=O)O (stereo not drawn) [CBK307241] | 95% |
| Cc1nc(N2CCCCC2)ncc1C(=O)NCc1nonc1C [CBK307243] | 87.7% |
| CCOC(=O)c1cn(CCSCC)cc(Oc2ccccc2)c1=O [CBK307244] | 115% |
| CCCc1nc(C(=O)N2Cc3cnn(Cc4ccc(F)cc4)c3C2)cs1 [CBK307249] | 86% |
| CCN1CC2(CCC1=O)CCN(Cc1cccc(C(C)N(C)C)c1)CC2 (stereo not drawn) [CBK307250] | 116% |
| COc1nc2ccn(CC(O)CO)c(=O)c2cc1C#N (stereo not drawn) [CBK307251] | 97.1% |
| CCCn1nccc1S(=O)(=O)NCCN1CCCCC1CO (stereo not drawn) [CBK307259] | 82% |
| Cc1cc(C(F)(F)F)nn1CCNC(=O)c1cn2ccsc2n1 [CBK307260] | 112% |
| CCOc1ccc(NC(=O)NC(CC)c2cnn(C)c2)cc1Cl (stereo not drawn) [CBK307262] | 107% |
| CCCS(=O)(=O)NC1CC(C)(C)Cc2c1cnn2-c1ccccc1 (stereo not drawn) [CBK307265] | 98.1% |
| CN(c1ncccc1CNC(=O)c1c[nH]c(=O)c(Cl)c1)C1CCCCC1 [CBK307267] | 92.6% |

| Compound | viability at 28.5 h, 10 µM |
| --- | --- |
| Cc1cc(CC(=O)NCCCn2ccnc2C(C)C)on1 [CBK307270] | 99.7% |
| CN(C)CCn1ccnc1C1CCCN(C(=O)Cc2cccc(Cl)c2)C1 (stereo not drawn) [CBK307272] | 92.3% |
| N#Cc1cccnc1N1CCC(NC(=O)Cn2cccnc2=O)CC1 [CBK307275] | 95.7% |
| Cc1cc(C)n2nc(CC(=O)NCCCn3cc(Cl)cn3)nc2n1 [CBK307276] | 84.3% |
| COc1cc2c(cc1CN1CCOCC1CC(=O)O)CCC2 (stereo not drawn) [CBK307277] | 102% |
| O=C(NCCCn1cc(Cl)cn1)N1CCCN(Cc2cccs2)CC1 [CBK307279] | 105% |
| CCn1c(C2CCN(C(=O)c3ccc(C)c(Cl)c3)CC2)nn(C)c1=O [CBK307280] | 95.9% |
| COc1ccc(Cc2nc(CCNC(C)=O)n(CC(F)(F)F)n2)cc1 [CBK307287] | 77.8% |
| Cc1cc(-c2cn3cc(C(=O)NCCO)nc3c(=O)n2C)c(C)o1 [CBK307288] | 89.4% |
| COCCn1c(CN2Cc3ccc(Cl)cc3C2=O)nnc1[C@H]1C[C@@H](N)C1 [CBK307289] | 102% |
| OC(c1cccs1)C1CCN(Cc2cnn(-c3ccccc3)c2)CC1 (stereo not drawn) [CBK307290] | 105% |
| Cc1csc2c(N3CCC(NCCCc4cnn(C)c4)CC3)ncnc12 [CBK307291] | 98.2% |
| Cn1cc(CCC(=O)NC(Cc2ccncc2)[C@H]2C[C@H](O)C2)cn1 (stereo partly drawn) [CBK307292] | 82.4% |
| Cc1nc2c(c(N(C)C)n1)CCN(C(=O)C(C)n1cc(Cl)cn1)C2 (stereo not drawn) [CBK307293] | 110% |
| Cc1nc2cc(OCc3nc(C(=O)NC4CCNC4=O)co3)ccc2s1 (stereo not drawn) [CBK307298] | 91.8% |
| COc1cccc2ncn(CCc3n[nH]c(N)n3)c(=O)c12 [CBK307301] | 90.8% |
| COc1ccc2[nH]c(C(=O)N3CCn4nc(CO)cc4C3)c(C)c2c1 [CBK307302] | 106% |
| COc1ccnc(C(=O)N(Cc2ccccn2)CC2CCCO2)c1 (stereo not drawn) [CBK307303] | 94.1% |
| CCOc1ccccc1CN(C)c1cc(C2CC(N)C2)nc(N)n1 (stereo not drawn) [CBK307308] | 82.4% |
| CCCc1nc(NC(CCO)c2ccc(C)cc2)c2cnn(C)c2n1 (stereo not drawn) [CBK307309] | 85.3% |
| COCC(=O)NCC1Cc2cc(F)cc(-c3ccc(C(C)=O)s3)c2O1 (stereo not drawn) [CBK307310] | 98.4% |
| CCCS(=O)(=O)NC(C)c1cnn(-c2ccc(OC)cc2)c1C (stereo not drawn) [CBK307319] | 115% |
